The values that follow are results of earlier work, collected in patent publication US20100189771A1, “FIXED RATIO DRUG COMBINATION TREATMENTS FOR SOLID TUMORS” (priority 2005, published 2010).

SMILES strings stand for the structures. Read-outs that look alike come from different tables or passages of the source.

The conditions of the data set: conventional irinotecan.

With `CCc1c2c(nc3ccc(OC(=O)N4CCC(N5CCCCC5)CC4)cc13)-c1cc3c(c(=O)n1C2)COC(=O)[C@]3(O)CC` [Irinotecan, irinotecan], the “IRINOTECAN AUC” value is reported as 18,091 ng-h/ml (dose 240 mg/m^2, N=3) and 22,998 ng-h/ml (dose 340 mg/m^2, N=6). Moreover, the “IRINOTECAN Cmax” value is recorded as 2,810 ng/ml (dose 240 mg/m^2, N=3, patients' plasma) and 3,392 ng/ml (dose 340 mg/m^2, N=6).
